Literature values as cited in publication PMC6270026, “Antibacterial and Herbicidal Activity of Ring-Substituted 2-Hydroxynaphthalene-1-carboxanilides” (Molecules, 2013).
Converted amounts (≈) assume the structure as drawn.

Columns and labels:
[1] = set-up: method as in PMID 23884130; conditions: 3-hydroxynaphthalene-2-carboxanilide series; cited from earlier work
[2] = tested on: Staphylococcus aureus ATCC 29213; set-up: method as in PMID 23884130; conditions: previous study; cited from earlier work
[3] = tested on: methicillin-resistant Staphylococcus aureus (MRSA) 63718; set-up: method as in PMID 23884130; conditions: previous study, all the MRSA strains; cited from earlier work
[4] = tested on: methicillin-resistant Staphylococcus aureus SA 630; set-up: method as in PMID 23884130; conditions: previous study, all the MRSA strains; cited from earlier work
[5] = tested on: methicillin-resistant Staphylococcus aureus SA 3202; set-up: method as in PMID 23884130; conditions: previous study, all the MRSA strains; cited from earlier work
[6] = tested on: human monocytic leukemia THP-1 cells; conditions: assessed in this line formerly; cited from earlier work

SMILES	log k [1]	MIC against S. aureus [2]	MIC against MRSA strains (MRSA 63718) [3]	MIC against MRSA strains (SA 630) [4]	MIC against MRSA strains (SA 3202) [5]	LD50 [6]
COc1ccccc1NC(=O)c1cc2ccccc2cc1O [3-hydroxy-N-(2-methoxyphenyl)naphthalene-2-carboxamide]	0.69	55.0 µM (≈ 16.1 µg/mL)	55.0 µM (≈ 16.1 µg/mL)	55.0 µM (≈ 16.1 µg/mL)	55.0 µM (≈ 16.1 µg/mL)	
CC[C@@]1(O)C(=O)OCc2c1cc1n(c2=O)Cc2cc3ccccc3nc2-1 [camptothecin]						0.16 ± 0.07 µmol/L
